In one test the test system is human ASIC3 channels. The note with it: ref [18]; cited from earlier work. From the text:
Peptide Ugr9-1 was originally identified as a negative modulator of human ASIC3 channels. […] Combining comparative analysis, molecular modeling techniques, and structural and functional studies, we generated two novel peptide variants derived from Ugr9-1 capable of modulating both ASIC3 and ASIC1a channels.

The target in test [1] is T1, rat ASIC1a/3 heteromeric channels (Rattus norvegicus, UniProt O35240+P55926).
T1 construct: expressed in transfected cells; host or cells: Xenopus laevis oocytes co-injected with ASIC1a and ASIC3 mRNA (1:5)
T1 sequence (P55926 1-526): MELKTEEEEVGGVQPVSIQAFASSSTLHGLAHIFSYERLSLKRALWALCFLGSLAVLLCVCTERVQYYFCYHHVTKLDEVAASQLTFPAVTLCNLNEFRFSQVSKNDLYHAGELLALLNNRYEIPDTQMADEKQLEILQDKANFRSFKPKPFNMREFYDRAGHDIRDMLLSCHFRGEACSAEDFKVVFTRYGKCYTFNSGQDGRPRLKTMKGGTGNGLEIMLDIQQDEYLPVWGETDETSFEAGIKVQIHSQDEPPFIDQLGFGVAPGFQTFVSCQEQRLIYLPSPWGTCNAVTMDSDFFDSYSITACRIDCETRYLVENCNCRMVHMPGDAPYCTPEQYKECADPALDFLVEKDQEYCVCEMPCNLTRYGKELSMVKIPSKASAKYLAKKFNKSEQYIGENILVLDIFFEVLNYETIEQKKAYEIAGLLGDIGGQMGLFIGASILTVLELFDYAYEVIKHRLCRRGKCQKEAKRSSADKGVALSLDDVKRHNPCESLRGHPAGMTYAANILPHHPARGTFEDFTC
T1 sequence (O35240 1-533): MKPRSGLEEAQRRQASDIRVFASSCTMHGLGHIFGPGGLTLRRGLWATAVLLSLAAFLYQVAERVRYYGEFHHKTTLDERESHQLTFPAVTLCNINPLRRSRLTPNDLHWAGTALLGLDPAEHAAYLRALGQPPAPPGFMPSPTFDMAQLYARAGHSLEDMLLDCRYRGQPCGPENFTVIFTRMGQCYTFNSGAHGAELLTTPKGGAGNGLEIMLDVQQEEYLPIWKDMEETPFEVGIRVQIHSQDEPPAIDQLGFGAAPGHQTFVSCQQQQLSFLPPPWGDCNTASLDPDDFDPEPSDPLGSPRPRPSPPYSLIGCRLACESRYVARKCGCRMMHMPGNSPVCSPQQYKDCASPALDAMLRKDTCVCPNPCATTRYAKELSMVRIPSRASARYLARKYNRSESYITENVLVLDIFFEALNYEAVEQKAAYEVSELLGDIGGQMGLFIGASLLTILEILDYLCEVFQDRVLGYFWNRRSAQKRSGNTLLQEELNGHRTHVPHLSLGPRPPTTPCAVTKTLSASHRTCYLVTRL
Nature of the test: Two-electrode voltage clamp, rat ASIC1a/3 heteromeric channels in X. laevis oocytes. In kind it is cell-based. From the text: Figure 4 The effect of the mutant peptide A23K on rat heteromeric ASIC1a/3 channels. […] The depicted currents were induced by a pH 5.5 stimulus following a conditioning pH of 7.4, with the peptide applied for 30 s before the pH stimulus. (B) Dose–response curve for the inhibitory effect of the mutant peptide. Each data point represents data from 6 cells. Data are presented as mean ± S.E.M.
A small portion of the ovary was isolated from frogs under anesthesia induced by a 0.17% solution of procaine methanesulphonate (MS222) (Sigma), followed by treatment with collagenase (1 mg/mL) at room temperature for 2 h. Oocytes at stages IV and V, devoid of follicular membranes, were transferred to ND-96 medium (containing 96 mM NaCl, 5 mM HEPES, 2 mM KCl, 1.8 mM CaCl2, 1 mM MgCl2, pH 7.4). mRNA synthesis was performed from pcDNA3.1 vectors (Invitrogen, Carlsbad, CA, USA) containing the rat ASIC3 gene, as well as pCI vectors containing genes for rat ASIC1a, its mutant analogues, and ASIC1b. mRNA (2.5–10 ng) was then injected into the oocytes. For the ASIC1a/3 heteromeric channels, the mRNA encoding the ASIC1a and ASIC3 subunits were injected in a 1:5 ratio, respectively. Subsequently, the oocytes were incubated for 2–3 days at a temperature of 17–19 °C in ND96 medium supplemented with gentamicin and streptomycin (20 µg/mL each).
Whole-cell electrophysiological recordings of ASIC channels were conducted using a two-electrode voltage-clamp setup. Microelectrodes were filled with 3 M KCl. Recordings from oocytes were carried out at a holding potential of −50 mV, with data filtered at 10 Hz and sampled at a rate of 100 Hz using an L780M ADC (LCard, Moscow, Russia). The synchronized delivery of solutions into the chamber and recording of electrophysiological results were carried out using in-house software v.2. Activation of ASIC channels occurred through rapid pH changes in the solution, achieved by replacing the working solution in the chamber with ND96-based solutions at varying pH levels. Specifically, HEPES was substituted with 10 mM MES for pH 5.5–6.5 and MOPS for pH 6.7–7.0.
Fresh peptide solutions were meticulously prepared in ND96 buffer with a pH of 7.43 immediately before experiments, with strict control over the pH levels. Peptides were applied for 30 s at a conditioning pH of 7.43 before acid stimulation of the channel. The interval between applications was maintained at a minimum of 1.5 to 2 min.
Electrophysiological data analysis was conducted using OriginPro 2018 software (OriginLab, Northampton, MA, USA). Dose–response relationships for Ugr9a-1, S16K, and A23K peptides were fitted using a Hill function: F1(x) = A − A/(1 + (x/IC50)^nH), where F1(x) represents the amplitude of the current at concentration x of the peptide, A is the maximum amplitude of the current, IC50 is the half-maximum inhibitory concentration of the peptide, and nH is the Hill coefficient.

Positions of bridges follow the written chain, without caps; N, C: chain ends. Residues, ends and D or L forms follow the SMILES beside them.

Take `CC[C@H](C)[C@H](N)C(=O)N[C@@H](CO)C(=O)N[C@H](C(=O)N[C@@H](CC(=O)O)C(=O)N1CCC[C@H]1C(=O)N1CCC[C@H]1C(=O)N[C@H]1CSSC[C@@H]2NC(=O)[C@H](CC(N)=O)NC(=O)CNC(=O)[C@H](CO)NC(=O)CNC(=O)[C@H](CC(=O)O)NC(=O)[C@H](CCCNC(=N)N)NC(=O)[C@H](Cc3c[nH]cn3)NC(=O)[C@H](Cc3ccc(O)cc3)NC(=O)[C@H](CSSC[C@@H](C(=O)NCC(=O)N[C@@H](C)C(=O)N[C@H](C(=O)O)C(C)C)NC(=O)CNC(=O)[C@H](Cc3ccc(O)cc3)NC(=O)[C@H](C)NC(=O)[C@H](CC(=O)O)NC(=O)[C@H](Cc3ccc(O)cc3)NC(=O)[C@H](C(C)C)NC2=O)NC(=O)[C@H](Cc2ccccc2)NC(=O)[C@H](CCCNC(=N)N)NC1=O)[C@@H](C)CC` [Ugr9-1] (H-ISIDPPCRFCYHRDGSGNCVYDAYGCGAV-OH; disulfide 7-19, 10-26): the IC50 in the test on human ASIC3 channels was 10 µM.

Regarding `CC[C@H](C)[C@H](N)C(=O)N[C@@H](CO)C(=O)N[C@H](C(=O)N[C@@H](CC(=O)O)C(=O)N1CCC[C@H]1C(=O)N1CCC[C@H]1C(=O)N[C@H]1CSSC[C@@H]2NC(=O)[C@H](CC(N)=O)NC(=O)CNC(=O)[C@H](CO)NC(=O)CNC(=O)[C@H](CC(=O)O)NC(=O)[C@H](CCCNC(=N)N)NC(=O)[C@H](Cc3c[nH]cn3)NC(=O)[C@H](Cc3ccc(O)cc3)NC(=O)[C@H](CSSC[C@@H](C(=O)NCC(=O)N[C@@H](C)C(=O)N[C@H](C(=O)O)C(C)C)NC(=O)CNC(=O)[C@H](Cc3ccc(O)cc3)NC(=O)[C@H](CCCCN)NC(=O)[C@H](CC(=O)O)NC(=O)[C@H](Cc3ccc(O)cc3)NC(=O)[C@H](C(C)C)NC2=O)NC(=O)[C@H](Cc2ccccc2)NC(=O)[C@H](CCCNC(=N)N)NC1=O)[C@@H](C)CC` [A23K] (H-ISIDPPCRFCYHRDGSGNCVYDKYGCGAV-OH; disulfide 7-19, 10-26), in test [1] (ASIC1a/3 versus homomeric ASIC1a), the “inhibitory effect on heteromeric channels compared to homomeric ASIC1a” value is on record as “approximately 1.6 -fold”. The “inhibitory effect on heteromeric channels compared to homomeric ASIC3” value in test [1] (ASIC1a/3 versus homomeric ASIC3) is recorded as ~2.2 -fold. The nH in test [1] (inhibition of rat ASIC1a/3, pH 5.5 stimulus, conditioning pH 7.4, mean ± S.E.M., 6 cells) worked out at 1.6 ± 0.2. In test [1] (rat ASIC1a/3 heteromer, X. laevis oocytes (mRNA 1:5), pH 5.5 stimulus, conditioning pH 7.4, peptide 30 s, mean ± S.E.M., 6 cells), this compound showed an IC50 of 4.2 ± 0.6 µM. In addition, the “wash procedure required to restore ASIC1a/3 function” value in test [1] (washout after peptide) is “extended wash procedure required to restore ASIC1a/3 function”.

Values taken from article PMC11432795, “Mutagenesis of the Peptide Inhibitor of ASIC3 Channel Introduces Binding to Thumb Domain of ASIC1a but Reduces Analgesic Activity” (Marine Drugs, 2024).
